Several values for one entry are separate records, joined by “and”; a condition that tells them apart may be missing. Equal entries are not always repeated. Toxic doses and inconclusive results are not listed. Rule for the calls: active = survival T/C of 150% or more; inactive = T/C below 125% in these data.
System: CD2F1 mice, L1210 leukemia ip, survival T/C
Experiment: NCI In Vivo Anticancer Drug Screen. Data for tumor model L1210 Leukemia (intraperitoneal) in CD2F1 (CDF1) mice
Details: endpoint: mean survival time, higher = longer survival
Procedure, shortened: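 Each value reflects a quotient of treated over vehicle control outcomes in mice with a transplanted tumor.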

[1] = dose: 25.0 mg/kg/injection, schedule: Q01DX009 (ip), vehicle: saline with Tween-80
[2] = dose: 50.0 mg/kg/injection, schedule: Q01DX009 (ip), vehicle: saline with Tween-80
[3] = dose: 100.0 mg/kg/injection, schedule: Q01DX009 (ip), vehicle: saline with Tween-80
[4] = dose: 100.0 mg/kg/injection, schedule: Q04DX003 (ip), vehicle: saline with Tween-80
[5] = dose: 200.0 mg/kg/injection, schedule: Q04DX003 (ip), vehicle: saline with Tween-80
[6] = dose: 400.0 mg/kg/injection, schedule: Q04DX003 (ip), vehicle: saline with Tween-80
[7] = dose: 200.0 mg/kg/injection, schedule: Q01DX009 (ip), vehicle: saline with Tween-80
[8] = dose: 400.0 mg/kg/injection, schedule: Q01DX009 (ip), vehicle: saline with Tween-80
[9] = dose: 75.0 mg/kg/injection, schedule: Q04DX003 (ip), vehicle: saline

Measured: T/C

CC/C=N/NC(=O)c1ccc[n+](C)c1
inactive: dose: 100.0 mg/kg/injection, schedule: Q04DX002 (ip), vehicle: saline with Tween-80 100 % of control | dose: 200.0 mg/kg/injection, schedule: Q04DX002 (ip), vehicle: saline with Tween-80 92 % of control | dose: 400.0 mg/kg/injection, schedule: Q04DX002 (ip), vehicle: saline with Tween-80 96 % of control

CCCCOS(=O)(=O)c1ccc(Cl)c([N+](=O)[O-])c1
inactive: [1] 102 % of control | [2] 100 % of control | [3] 91 % of control | [4] 96 % of control | [5] 98 % of control | [6] 91 % of control

[Br][Pt+2][Br].[NH-]C1CCCCC1[NH-] (stereo unspecified)
inactive: dose: 0.78 mg/kg/injection, schedule: Q04DX003 (ip), vehicle: saline with Tween-80 110 % of control | dose: 1.56 mg/kg/injection, schedule: Q04DX003 (ip), vehicle: saline with Tween-80 113 % of control

Cc1cc2cc3cc(C)c(N)cc3nc2cc1N
inactive: dose: 3.12 mg/kg/injection, schedule: Q01DX009 (ip), vehicle: saline with Tween-80 103 % of control and 106 % of control | dose: 6.25 mg/kg/injection, schedule: Q01DX009 (ip), vehicle: saline with Tween-80 101 % of control and 107 % of control | dose: 12.5 mg/kg/injection, schedule: Q01DX009 (ip), vehicle: saline with Tween-80 106 % of control | [1] 98 % of control and 106 % of control | [2] 86 % of control and 97 % of control | [3] 92 % of control

COc1ccc(/C=C2/C=C(c3ccccc3)OC2=O)cc1
inactive: dose: 100.0 mg/kg/injection, schedule: Q04DX003 (ip), vehicle: saline 98 % of control | dose: 200.0 mg/kg/injection, schedule: Q04DX003 (ip), vehicle: saline 101 % of control | dose: 400.0 mg/kg/injection, schedule: Q04DX003 (ip), vehicle: saline 98 % of control

Clc1ccc(CSCc2ccc(Cl)cc2Cl)c(Cl)c1
inactive: [3] 96 % of control | [4] 100 % of control | [7] 100 % of control | [5] 104 % of control | [8] 98 % of control | [6] 100 % of control

Clc1ccc(SC=C(Sc2ccc(Cl)cc2)Sc2ccc(Cl)cc2)cc1
inactive: dose: 100.0 mg/kg/injection, schedule: Q04DX002 (ip), vehicle: other 94 % of control | dose: 200.0 mg/kg/injection, schedule: Q04DX002 (ip), vehicle: other 94 % of control | dose: 400.0 mg/kg/injection, schedule: Q04DX002 (ip), vehicle: other 87 % of control

CC(C)(C)C=O
inactive: dose: 100.0 mg/kg/injection, schedule: Q01DX009 (ip), vehicle: saline 95 % of control | dose: 200.0 mg/kg/injection, schedule: Q01DX009 (ip), vehicle: saline 102 % of control | dose: 400.0 mg/kg/injection, schedule: Q01DX009 (ip), vehicle: saline 96 % of control

N#Cc1cc(N2CC2)c([N+](=O)[O-])cc1[N+](=O)[O-]
inactive: dose: 100.0 mg/kg/injection, schedule: Q01DX001 (ip), vehicle: Klucel (hydroxypropylcellulose) (HPC) 102 % of control | dose: 200.0 mg/kg/injection, schedule: Q01DX001 (ip), vehicle: Klucel (hydroxypropylcellulose) (HPC) 103 % of control | dose: 400.0 mg/kg/injection, schedule: Q01DX001 (ip), vehicle: Klucel (hydroxypropylcellulose) (HPC) 103 % of control

O=C(N/N=C/c1ccc(Cl)cc1)c1ccc(Cl)cc1
inactive: [4] 101 % of control | [5] 93 % of control | [6] 108 % of control

CC(=O)Nc1ccc(CN2CC(C)N(N)C(C)C2)cc1 (stereo unspecified)
inactive: dose: 12.5 mg/kg/injection, schedule: Q01DX009 (ip), vehicle: Klucel (hydroxypropylcellulose) (HPC) 103 % of control | dose: 25.0 mg/kg/injection, schedule: Q01DX009 (ip), vehicle: Klucel (hydroxypropylcellulose) (HPC) 98 % of control | dose: 50.0 mg/kg/injection, schedule: Q01DX009 (ip), vehicle: Klucel (hydroxypropylcellulose) (HPC) 98 % of control | dose: 100.0 mg/kg/injection, schedule: Q01DX009 (ip), vehicle: Klucel (hydroxypropylcellulose) (HPC) 101 % of control | dose: 200.0 mg/kg/injection, schedule: Q01DX009 (ip), vehicle: Klucel (hydroxypropylcellulose) (HPC) 103 % of control | dose: 400.0 mg/kg/injection, schedule: Q01DX009 (ip), vehicle: Klucel (hydroxypropylcellulose) (HPC) 89 % of control

CC(C)CN(CC(C)C)C(=S)[S-].CC(C)CN(CC(C)C)C(=S)[S-].[Zn]
inactive: [9] 91 % of control | dose: 150.0 mg/kg/injection, schedule: Q04DX003 (ip), vehicle: saline 89 % of control | dose: 300.0 mg/kg/injection, schedule: Q04DX003 (ip), vehicle: saline 95 % of control

O=C(CNC(=O)NCc1ccco1)NNC(=O)Nc1ccc(F)c(Cl)c1
inactive: [3] 93 % of control | [7] 88 % of control | [8] 96 % of control

CCCCCCC(O)/C=C/c1ccc(Cl)cc1 (stereo unspecified)
inactive: [4] 110 % of control | [5] 102 % of control | [6] 111 % of control

CC(C)COC(=O)c1ccc(NC(=O)Nc2ccccc2Cl)cc1
inactive: [3] 93 % of control | [4] 93 % of control | [7] 89 % of control | [6] 101 % of control

ClCc1ccc(Cl)c(Cl)c1Cl
inactive: [1] 100 % of control | [2] 100 % of control | [3] 100 % of control

CSc1ccc(O)c(C)c1
inactive: [4] 104 % of control | [7] 97 % of control | [5] 102 % of control | [6] 104 % of control

CCOc1ccc(NC2OC(CO)C(O)C(O)C2O)cc1 (stereo unspecified)
inactive: dose: 100.0 mg/kg/injection, schedule: Q01DX001 (ip), vehicle: saline 100 % of control | dose: 200.0 mg/kg/injection, schedule: Q01DX001 (ip), vehicle: saline 108 % of control

O=C1c2ccccc2C(=O)N1CO
inactive: dose: 100.0 mg/kg/injection, schedule: Q01DX001 (ip), vehicle: saline with Tween-80 108 % of control | [3] 101 % of control | dose: 200.0 mg/kg/injection, schedule: Q01DX001 (ip), vehicle: saline with Tween-80 106 % of control | [7] 97 % of control | dose: 400.0 mg/kg/injection, schedule: Q01DX001 (ip), vehicle: saline with Tween-80 104 % of control | [8] 101 % of control

O=C(C[n+]1cccc(C(=O)c2ccccc2)c1)c1ccccc1
inactive: dose: 9.4 mg/kg/injection, schedule: Q01DX009 (ip), vehicle: saline 94 % of control | dose: 18.8 mg/kg/injection, schedule: Q01DX009 (ip), vehicle: saline 94 % of control | dose: 37.5 mg/kg/injection, schedule: Q01DX009 (ip), vehicle: saline 93 % of control | dose: 37.5 mg/kg/injection, schedule: Q04DX003 (ip), vehicle: saline 96 % of control | dose: 75.0 mg/kg/injection, schedule: Q01DX001 (ip), vehicle: saline 100 % of control | [9] 94 % of control | dose: 150.0 mg/kg/injection, schedule: Q01DX001 (ip), vehicle: saline 97 % of control

CN(C)c1ccc(N=Nc2ccc3c(c2)C(=O)c2ccccc2C3=O)cc1
inactive: dose: 100.0 mg/kg/injection, schedule: Q04DX003 (ip), vehicle: other 95 % of control | dose: 200.0 mg/kg/injection, schedule: Q04DX003 (ip), vehicle: other 93 % of control | dose: 400.0 mg/kg/injection, schedule: Q04DX003 (ip), vehicle: other 98 % of control

Cc1ccc(Sc2cccc3c(C)c4cccc5c4c(c23)C[S+]5c2ccc(C)cc2)cc1 (stereo unspecified)
inactive: dose: 6.25 mg/kg/injection, schedule: Q04DX003 (ip), vehicle: saline with Tween-80 98 % of control

C=CC[n+]1cc2c3ccccc3c(N)cc2c2ccccc21
inactive: dose: 1.56 mg/kg/injection, schedule: Q04DX003 (ip), vehicle: water 106 % of control | dose: 3.13 mg/kg/injection, schedule: Q04DX003 (ip), vehicle: water 108 % of control | dose: 6.25 mg/kg/injection, schedule: Q04DX003 (ip), vehicle: water 98 % of control
